Reference: ChEMBL document CHEMBL1201862, “PubChem BioAssay data set” (2004)
Where a name gives a salt, the structure may show the parent alone. The source made the active and inactive calls.

How the values were obtained:
Caspase-3 = biological target: T1, Caspase-3 (Homo sapiens, UniProt P42574); type: functional;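 note: Dose-response selectivity test against caspase-3 for candidate inhibitors of sentrin-specific proteases (SENPs)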
T1 sequence (P42574 whole entry): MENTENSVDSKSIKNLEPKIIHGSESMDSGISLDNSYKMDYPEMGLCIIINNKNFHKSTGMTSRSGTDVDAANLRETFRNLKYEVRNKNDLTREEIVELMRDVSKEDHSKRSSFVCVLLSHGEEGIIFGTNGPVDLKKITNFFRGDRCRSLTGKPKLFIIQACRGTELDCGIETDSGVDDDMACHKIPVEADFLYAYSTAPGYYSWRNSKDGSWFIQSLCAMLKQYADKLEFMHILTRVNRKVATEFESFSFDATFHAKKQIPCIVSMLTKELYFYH

[1] = biological target: T2, Sentrin-specific protease 7 (Homo sapiens, UniProt Q9BQF6); type: functional;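 note: Luminescence-based dose-response confirmation of ultra-high-throughput screening hits, measuring inhibition of SENP7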
T2 sequence (Q9BQF6 whole entry): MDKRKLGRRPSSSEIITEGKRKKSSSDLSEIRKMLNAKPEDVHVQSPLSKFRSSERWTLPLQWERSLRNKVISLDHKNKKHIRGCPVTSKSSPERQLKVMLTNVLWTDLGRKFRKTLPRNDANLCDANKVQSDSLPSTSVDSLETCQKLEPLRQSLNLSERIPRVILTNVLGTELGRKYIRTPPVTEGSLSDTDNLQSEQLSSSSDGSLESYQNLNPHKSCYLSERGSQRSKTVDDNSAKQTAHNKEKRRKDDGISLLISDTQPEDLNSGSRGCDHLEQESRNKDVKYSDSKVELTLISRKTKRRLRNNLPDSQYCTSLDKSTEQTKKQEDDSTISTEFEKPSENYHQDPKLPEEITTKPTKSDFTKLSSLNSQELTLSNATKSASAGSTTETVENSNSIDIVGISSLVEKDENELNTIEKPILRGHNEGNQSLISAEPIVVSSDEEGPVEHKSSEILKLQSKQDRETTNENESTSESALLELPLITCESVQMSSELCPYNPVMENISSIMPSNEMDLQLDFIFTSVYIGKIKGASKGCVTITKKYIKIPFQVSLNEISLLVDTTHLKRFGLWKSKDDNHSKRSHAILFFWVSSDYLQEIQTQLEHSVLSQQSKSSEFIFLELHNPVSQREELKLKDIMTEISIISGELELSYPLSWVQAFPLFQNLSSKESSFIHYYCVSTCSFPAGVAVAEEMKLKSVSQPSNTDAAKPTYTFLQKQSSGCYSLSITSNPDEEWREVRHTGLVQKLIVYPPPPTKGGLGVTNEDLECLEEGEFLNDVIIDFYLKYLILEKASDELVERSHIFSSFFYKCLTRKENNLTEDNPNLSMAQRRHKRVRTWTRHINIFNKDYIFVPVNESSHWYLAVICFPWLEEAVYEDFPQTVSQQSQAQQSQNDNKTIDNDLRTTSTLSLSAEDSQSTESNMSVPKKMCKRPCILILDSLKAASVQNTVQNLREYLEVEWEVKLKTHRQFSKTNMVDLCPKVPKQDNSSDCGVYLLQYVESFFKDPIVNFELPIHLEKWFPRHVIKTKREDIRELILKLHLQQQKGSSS

[2] = biological target: T3, Sentrin-specific protease 6 (Homo sapiens, UniProt Q9GZR1); type: functional;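 note: Luminescence-based dose-response confirmatory assay of SENP6 inhibition, following up an ultra-high-throughput screen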
T3 sequence (Q9GZR1 whole entry): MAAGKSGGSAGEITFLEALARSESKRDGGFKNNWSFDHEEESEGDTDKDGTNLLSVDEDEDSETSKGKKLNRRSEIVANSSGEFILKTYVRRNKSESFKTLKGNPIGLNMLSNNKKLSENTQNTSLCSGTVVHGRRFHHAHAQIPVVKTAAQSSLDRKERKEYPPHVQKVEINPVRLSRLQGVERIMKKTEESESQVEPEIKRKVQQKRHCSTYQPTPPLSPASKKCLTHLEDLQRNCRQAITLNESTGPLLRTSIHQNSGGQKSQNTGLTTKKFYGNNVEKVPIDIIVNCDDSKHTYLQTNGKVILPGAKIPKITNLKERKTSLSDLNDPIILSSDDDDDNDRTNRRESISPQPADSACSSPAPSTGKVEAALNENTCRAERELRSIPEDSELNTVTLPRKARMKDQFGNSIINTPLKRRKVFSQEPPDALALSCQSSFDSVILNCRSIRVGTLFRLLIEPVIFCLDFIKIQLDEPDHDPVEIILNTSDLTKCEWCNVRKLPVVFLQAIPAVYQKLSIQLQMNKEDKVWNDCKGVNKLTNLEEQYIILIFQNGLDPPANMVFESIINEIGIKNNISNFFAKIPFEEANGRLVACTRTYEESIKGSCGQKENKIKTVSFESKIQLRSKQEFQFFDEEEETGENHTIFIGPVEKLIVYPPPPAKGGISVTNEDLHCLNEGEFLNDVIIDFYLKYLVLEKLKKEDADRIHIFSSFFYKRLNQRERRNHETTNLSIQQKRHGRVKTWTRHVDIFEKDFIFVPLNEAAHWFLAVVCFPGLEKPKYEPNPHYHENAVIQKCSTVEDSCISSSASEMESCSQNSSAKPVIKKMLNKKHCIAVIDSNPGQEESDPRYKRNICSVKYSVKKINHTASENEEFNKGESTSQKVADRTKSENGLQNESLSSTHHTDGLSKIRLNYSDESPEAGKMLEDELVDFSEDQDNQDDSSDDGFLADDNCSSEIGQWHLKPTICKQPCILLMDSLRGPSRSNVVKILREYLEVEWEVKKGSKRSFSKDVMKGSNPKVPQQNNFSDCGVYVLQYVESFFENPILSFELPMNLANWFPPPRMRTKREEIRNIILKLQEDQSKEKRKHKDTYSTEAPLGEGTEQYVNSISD

[3] = biological target: T4, Sentrin-specific protease 8 (Homo sapiens, UniProt Q96LD8); type: functional
T4 sequence (Q96LD8 whole entry): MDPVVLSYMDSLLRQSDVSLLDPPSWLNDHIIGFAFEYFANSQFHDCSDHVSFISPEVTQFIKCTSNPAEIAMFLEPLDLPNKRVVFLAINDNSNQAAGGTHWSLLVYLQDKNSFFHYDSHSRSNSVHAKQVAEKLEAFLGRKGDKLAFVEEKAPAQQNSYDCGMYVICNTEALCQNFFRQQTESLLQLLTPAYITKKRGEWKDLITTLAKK

Estrogen receptor = biological target: T5, Estrogen receptor (Homo sapiens, UniProt P03372);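 note: potency for inhibiting coactivator peptide recruitment to the receptor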
T5 sequence (P03372 whole entry): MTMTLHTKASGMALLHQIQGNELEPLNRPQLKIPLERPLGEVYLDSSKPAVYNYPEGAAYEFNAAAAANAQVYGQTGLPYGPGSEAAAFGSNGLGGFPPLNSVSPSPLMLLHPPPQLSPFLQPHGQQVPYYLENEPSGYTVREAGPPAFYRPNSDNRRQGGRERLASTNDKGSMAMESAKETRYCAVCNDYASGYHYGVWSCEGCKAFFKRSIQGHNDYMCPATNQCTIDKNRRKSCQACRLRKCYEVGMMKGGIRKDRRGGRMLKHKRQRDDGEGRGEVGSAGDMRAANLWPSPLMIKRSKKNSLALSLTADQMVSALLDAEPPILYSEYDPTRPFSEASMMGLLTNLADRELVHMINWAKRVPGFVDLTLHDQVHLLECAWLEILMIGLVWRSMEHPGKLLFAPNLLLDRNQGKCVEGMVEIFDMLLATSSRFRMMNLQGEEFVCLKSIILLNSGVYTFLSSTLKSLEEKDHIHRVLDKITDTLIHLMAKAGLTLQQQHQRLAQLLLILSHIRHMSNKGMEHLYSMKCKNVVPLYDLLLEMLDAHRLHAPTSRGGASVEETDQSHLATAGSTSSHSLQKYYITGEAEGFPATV

Vero [4] = assay: viability of Vero cells under compound – cytotoxicity control for flavivirus capping enzyme inhibitors (AID 588742); type: functional; settings: Chlorocebus sabaeus
Genome polyprotein = Genome polyprotein (dengue virus type 2, UniProt P29990); assay: flavivirus cap methylation enzyme inhibition – biochemical, confirmation dose response, primary screen (AID 588689); type: functional
Sequence of Genome polyprotein (P29990 2492-3391 limits assumed): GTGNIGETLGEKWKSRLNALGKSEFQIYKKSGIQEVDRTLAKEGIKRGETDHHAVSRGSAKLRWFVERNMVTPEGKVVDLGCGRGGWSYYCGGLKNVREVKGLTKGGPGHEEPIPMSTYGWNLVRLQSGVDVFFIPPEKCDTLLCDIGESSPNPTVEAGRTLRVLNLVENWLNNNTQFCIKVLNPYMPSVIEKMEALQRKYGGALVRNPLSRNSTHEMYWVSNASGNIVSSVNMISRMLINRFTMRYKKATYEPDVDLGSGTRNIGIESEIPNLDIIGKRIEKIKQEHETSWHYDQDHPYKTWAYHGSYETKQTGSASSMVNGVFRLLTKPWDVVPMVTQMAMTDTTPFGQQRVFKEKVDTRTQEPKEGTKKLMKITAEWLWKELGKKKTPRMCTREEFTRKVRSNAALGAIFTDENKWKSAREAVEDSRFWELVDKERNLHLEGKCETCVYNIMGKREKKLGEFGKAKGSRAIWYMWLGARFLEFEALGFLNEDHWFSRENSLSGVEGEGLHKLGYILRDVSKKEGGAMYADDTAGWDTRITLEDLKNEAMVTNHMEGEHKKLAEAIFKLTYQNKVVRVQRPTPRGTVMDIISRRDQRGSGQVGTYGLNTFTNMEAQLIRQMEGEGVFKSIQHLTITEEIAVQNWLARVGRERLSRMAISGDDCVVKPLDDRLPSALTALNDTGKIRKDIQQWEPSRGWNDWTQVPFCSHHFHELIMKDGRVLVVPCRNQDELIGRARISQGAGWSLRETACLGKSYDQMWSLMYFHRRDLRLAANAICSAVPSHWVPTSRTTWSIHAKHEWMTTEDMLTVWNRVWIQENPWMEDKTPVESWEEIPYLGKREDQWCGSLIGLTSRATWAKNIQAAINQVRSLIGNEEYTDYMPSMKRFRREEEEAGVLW

[5] = biological target: Ras and Rab interactor 1/Tyrosine-protein kinase ABL1 (Homo sapiens, UniProt P00519+Q13671); type: functional;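 note: biochemical TR-FRET dose-response test measuring inhibition of binding between Rin1 and Abl proteins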
Sequence of Ras and Rab interactor 1/Tyrosine-protein kinase ABL1 (P00519 whole entry): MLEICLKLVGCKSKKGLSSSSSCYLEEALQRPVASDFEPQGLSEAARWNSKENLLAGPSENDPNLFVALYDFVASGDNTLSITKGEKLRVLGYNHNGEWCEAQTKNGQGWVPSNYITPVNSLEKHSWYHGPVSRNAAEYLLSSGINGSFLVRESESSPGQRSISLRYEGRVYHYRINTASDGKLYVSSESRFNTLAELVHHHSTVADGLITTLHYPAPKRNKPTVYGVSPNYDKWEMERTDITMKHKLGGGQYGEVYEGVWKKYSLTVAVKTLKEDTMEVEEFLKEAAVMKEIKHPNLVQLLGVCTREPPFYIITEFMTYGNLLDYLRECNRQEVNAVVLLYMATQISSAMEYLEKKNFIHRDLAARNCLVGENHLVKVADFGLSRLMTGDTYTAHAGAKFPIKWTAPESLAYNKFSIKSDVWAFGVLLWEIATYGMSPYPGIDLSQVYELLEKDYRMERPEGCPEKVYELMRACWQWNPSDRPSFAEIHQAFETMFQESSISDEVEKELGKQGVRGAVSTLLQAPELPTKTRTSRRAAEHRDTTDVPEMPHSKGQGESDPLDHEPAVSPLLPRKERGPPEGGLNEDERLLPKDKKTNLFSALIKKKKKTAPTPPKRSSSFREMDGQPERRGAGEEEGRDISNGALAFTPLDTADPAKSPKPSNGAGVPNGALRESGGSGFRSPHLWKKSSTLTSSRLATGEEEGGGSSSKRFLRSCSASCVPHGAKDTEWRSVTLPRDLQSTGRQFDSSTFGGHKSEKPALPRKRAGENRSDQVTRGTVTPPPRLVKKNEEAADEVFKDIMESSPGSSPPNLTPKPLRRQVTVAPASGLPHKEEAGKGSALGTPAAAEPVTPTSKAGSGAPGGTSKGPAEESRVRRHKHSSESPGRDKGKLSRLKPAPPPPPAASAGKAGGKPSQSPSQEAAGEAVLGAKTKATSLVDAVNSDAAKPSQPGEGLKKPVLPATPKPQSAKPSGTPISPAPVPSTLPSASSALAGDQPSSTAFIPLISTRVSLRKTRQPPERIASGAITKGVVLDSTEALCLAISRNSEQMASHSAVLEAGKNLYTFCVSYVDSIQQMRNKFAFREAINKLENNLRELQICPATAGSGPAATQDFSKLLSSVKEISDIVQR
Sequence of Ras and Rab interactor 1/Tyrosine-protein kinase ABL1 (Q13671 whole entry): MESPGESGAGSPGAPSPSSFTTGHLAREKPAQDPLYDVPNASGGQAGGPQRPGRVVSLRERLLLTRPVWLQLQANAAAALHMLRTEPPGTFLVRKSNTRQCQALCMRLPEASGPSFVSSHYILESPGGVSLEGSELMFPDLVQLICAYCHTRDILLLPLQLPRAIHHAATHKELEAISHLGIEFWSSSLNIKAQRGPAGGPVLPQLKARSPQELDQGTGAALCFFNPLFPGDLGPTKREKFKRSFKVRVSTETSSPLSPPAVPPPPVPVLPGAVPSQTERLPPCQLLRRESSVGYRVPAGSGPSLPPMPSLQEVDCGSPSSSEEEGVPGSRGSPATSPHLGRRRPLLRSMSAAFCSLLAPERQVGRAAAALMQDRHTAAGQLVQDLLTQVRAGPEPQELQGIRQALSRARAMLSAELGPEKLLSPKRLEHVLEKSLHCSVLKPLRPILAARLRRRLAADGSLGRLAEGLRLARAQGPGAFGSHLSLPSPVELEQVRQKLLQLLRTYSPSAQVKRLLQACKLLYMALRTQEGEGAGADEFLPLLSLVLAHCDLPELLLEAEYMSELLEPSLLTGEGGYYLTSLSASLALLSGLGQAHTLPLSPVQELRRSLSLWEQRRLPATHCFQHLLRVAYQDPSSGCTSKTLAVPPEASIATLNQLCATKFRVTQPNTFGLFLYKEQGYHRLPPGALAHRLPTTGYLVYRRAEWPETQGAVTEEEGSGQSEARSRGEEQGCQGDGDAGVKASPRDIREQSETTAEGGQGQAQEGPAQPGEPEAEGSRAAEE

Mu-type opioid receptor = Mu-type opioid receptor (Homo sapiens, UniProt P35372); type: functional, cell-based;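 note: U2OS cells with beta-arrestin recruitment to OPRM1 by beta-gal complementation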
Sequence of Mu-type opioid receptor (P35372 whole entry): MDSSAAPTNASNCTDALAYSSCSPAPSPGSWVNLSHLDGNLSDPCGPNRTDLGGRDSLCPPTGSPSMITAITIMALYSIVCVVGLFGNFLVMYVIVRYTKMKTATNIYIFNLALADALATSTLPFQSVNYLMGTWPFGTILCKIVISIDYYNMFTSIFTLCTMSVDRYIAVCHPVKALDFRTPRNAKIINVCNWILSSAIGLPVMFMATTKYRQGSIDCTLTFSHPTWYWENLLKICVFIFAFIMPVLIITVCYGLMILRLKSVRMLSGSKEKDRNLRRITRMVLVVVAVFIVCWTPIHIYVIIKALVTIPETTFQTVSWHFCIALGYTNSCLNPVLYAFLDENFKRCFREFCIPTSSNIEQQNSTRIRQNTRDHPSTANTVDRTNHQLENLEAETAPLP

[6] = biological target: 5-hydroxytryptamine receptor 2A (Mus musculus, UniProt P35363); type: functional, cell-based;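 note: CHO-K1 cells with tagged receptor and beta-arrestin; agonist potency measured as compound-induced activation of the receptor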
Sequence of 5-hydroxytryptamine receptor 2A (P35363 whole entry): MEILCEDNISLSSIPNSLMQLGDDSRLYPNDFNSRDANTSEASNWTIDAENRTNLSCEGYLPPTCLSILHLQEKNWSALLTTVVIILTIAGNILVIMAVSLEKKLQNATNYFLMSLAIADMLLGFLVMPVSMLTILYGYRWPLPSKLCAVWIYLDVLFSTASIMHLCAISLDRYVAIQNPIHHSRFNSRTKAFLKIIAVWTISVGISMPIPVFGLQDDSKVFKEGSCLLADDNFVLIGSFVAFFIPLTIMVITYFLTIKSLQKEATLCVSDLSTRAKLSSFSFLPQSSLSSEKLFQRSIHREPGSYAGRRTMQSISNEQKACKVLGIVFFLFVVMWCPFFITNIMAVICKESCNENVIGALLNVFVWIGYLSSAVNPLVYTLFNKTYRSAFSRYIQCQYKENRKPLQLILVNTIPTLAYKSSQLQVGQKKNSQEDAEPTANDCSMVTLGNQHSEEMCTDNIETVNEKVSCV

[7] = THP-1 cell cytotoxicity, dose response, cytotoxicity control for non-replicating M. tuberculosis project (AID 489025); type: functional
[8] = HepG2 cell cytotoxicity, dose response, cytotoxicity control for non-replicating M. tuberculosis project (AID 489018); type: functional; settings: Mycobacterium tuberculosis
Nonstructural protein 1 = Nonstructural protein 1 (Influenza A virus, UniProt Q194T2); type: functional, Influenza A virus (A/California/07/2009(H1N1))
Sequence of Nonstructural protein 1 (Q194T2 whole entry): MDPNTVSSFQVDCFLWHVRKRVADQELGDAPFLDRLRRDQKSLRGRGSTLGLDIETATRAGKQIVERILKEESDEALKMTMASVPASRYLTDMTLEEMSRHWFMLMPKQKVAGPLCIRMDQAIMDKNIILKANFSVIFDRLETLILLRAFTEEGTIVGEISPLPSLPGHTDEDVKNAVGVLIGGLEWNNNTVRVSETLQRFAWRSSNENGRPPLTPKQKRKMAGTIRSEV

[9] = biological target: Heat shock protein HSP 90-alpha (Homo sapiens, UniProt P07900); type: functional, organism-based
Vero [10] = assay: cells; type: functional; settings: Chlorocebus sabaeus
Protein Tat = biological target: T6, Protein Tat (Human immunodeficiency virus type 1 group M subtype B (isolate HXB2)(HIV-1), UniProt P04608); type: functional;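 note: tat binding to TAR RNA read out by fluorescence polarization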
T6 sequence (P04608 whole entry): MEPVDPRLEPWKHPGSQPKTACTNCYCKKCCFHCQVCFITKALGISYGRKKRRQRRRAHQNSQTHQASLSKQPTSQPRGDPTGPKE

[11] = viability loss in THP-1 monocytes – THP-1 cells, cytotoxicity control for Vif-APOBEC3G degradation inhibitor project, dose response (AID 1117359); type: functional; settings: THP-1
[12] = reduction of Shn3 3'UTR-driven luciferase in osteoblasts – cell-based, Clone20 osteoblasts, firefly luciferase, cherry-picked, dose response (AID 624132); type: functional;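 note: firefly luciferase luminescence from reporter carrying the Shn3 3'UTR in osteoblasts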
[13] = loss of viability in HepG2 cells – cell-based, CellTiter-Glo, cherry-picked, cytotoxicity control for Shn3 inhibitor project, dose response (AID 624134); type: functional
[14] = non-specific 3'UTR reporter inhibition in Clone20-Shn3RL – cell-based, Renilla luciferase, cherry-picked, counter-screen for Shn3 inhibitor project, dose response (AID 624133); type: functional
Paired box protein Pax-8 = Paired box protein Pax-8 (Homo sapiens, UniProt Q06710); assay: PAX8 transcriptional activity inhibition in RMG-I – RMG-I cells, luciferase, cherry-pick, dose response (AID 687027); type: functional, cell-based;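 note: luciferase reporter driven by Pax8 target thyroperoxidase promoter measured by SteadyGlo luminescence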
Sequence of Paired box protein Pax-8 (Q06710 whole entry): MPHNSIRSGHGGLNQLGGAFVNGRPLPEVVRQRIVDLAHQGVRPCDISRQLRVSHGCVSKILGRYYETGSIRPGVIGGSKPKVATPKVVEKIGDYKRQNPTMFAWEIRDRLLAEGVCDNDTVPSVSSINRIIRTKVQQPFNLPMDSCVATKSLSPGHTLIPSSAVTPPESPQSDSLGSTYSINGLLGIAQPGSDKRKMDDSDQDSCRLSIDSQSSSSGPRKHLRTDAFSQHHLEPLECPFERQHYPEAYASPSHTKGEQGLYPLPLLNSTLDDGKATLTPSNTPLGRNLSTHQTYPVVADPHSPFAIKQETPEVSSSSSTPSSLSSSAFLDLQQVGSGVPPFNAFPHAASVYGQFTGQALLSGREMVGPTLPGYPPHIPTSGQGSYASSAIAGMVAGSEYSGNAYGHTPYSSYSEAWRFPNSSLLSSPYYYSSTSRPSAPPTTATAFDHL

[15] = biological target: T4, Sentrin-specific protease 8; type: functional; remark: listed apart in the source
[16] = biological target: T4, Sentrin-specific protease 8; type: functional; remark: listed apart in the source
[17] = biological target: T7, DNA repair protein RAD52 homolog (Homo sapiens, UniProt P43351); type: functional, biochemical
T7 sequence (P43351 whole entry): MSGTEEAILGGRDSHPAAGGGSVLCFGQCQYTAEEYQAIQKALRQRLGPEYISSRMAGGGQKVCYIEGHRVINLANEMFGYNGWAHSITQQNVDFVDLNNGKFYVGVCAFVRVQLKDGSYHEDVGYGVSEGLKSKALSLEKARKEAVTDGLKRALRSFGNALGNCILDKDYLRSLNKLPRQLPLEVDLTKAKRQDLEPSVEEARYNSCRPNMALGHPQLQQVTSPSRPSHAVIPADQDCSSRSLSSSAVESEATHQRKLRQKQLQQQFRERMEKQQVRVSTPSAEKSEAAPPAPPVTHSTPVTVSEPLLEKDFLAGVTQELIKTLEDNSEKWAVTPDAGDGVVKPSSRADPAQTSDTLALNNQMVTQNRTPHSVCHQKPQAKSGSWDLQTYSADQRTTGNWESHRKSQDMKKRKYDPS

SMILES: COc1ccc(C(N)=NOC(=O)Cc2cccs2)cc1
- IC50 (Caspase-3): 32 µM (active)
- IC50 [1]: 11.3 µM (active)
- IC50 [2]: 37.2 µM (active)
- IC50 [3]: 6.43 µM (active)

SMILES: Cc1cc(C)c2nc(-c3ccccn3)cc(C(=O)NCc3ccco3)c2c1
- IC50 (Estrogen receptor): > 50 µM (not active)
- CC50 (Vero [4]): > 40 µM (active)

SMILES: Cc1nn(-c2cccc(Cl)c2)c2nc(-c3ccco3)cc(C(=O)O)c12
- CC50 (Vero [4]): > 40 µM (active)
- IC50 (Genome polyprotein): > 100 µM (active)

SMILES: COc1ccc(C(=O)COC(=O)c2n[nH]c3ccccc23)c(OC)c1
- IC50 (Caspase-3): 33 µM (active)
- IC50 [1]: 8.72 µM (active)
- IC50 [2]: 29.9 µM (active)
- IC50 [3]: 40.3 µM (active)

SMILES: COc1cc2c(C(=O)N3CCN(c4cccc(Cl)c4)CC3)cn(C)c(=O)c2cc1OC
- IC50 [5]: 20.5 µM (inactive)

SMILES: Clc1ncc(CN2CCN(c3ccccc3)CC2)s1
- EC50 (Mu-type opioid receptor): 92.5 µM (inactive)
- EC50 [6]: 0.815 µM (active)

SMILES: CCSc1nsc(NC(=O)Nc2ccc(F)cc2F)n1
- CC50 [7]: 28.3 µM (active)
- CC50 [8]: > 20 µM (active)
- IC50 (Caspase-3): 39.5 µM (active)
- IC50 [1]: 13.7 µM (active)
- IC50 [2]: > 100 µM (inactive)
- IC50 [3]: > 100 µM (inactive)

SMILES: O=[N+]([O-])c1cc2no[n+]([O-])c2cc1N1CCCCC1
- IC50 (Nonstructural protein 1): 31.7 µM (active)
- AC50 [9]: 1.62 µM (active)
- CC50 (Vero [4]): 27.6 µM (active)
- CC50 (Vero [10]): 24.7 µM (active)
- IC50 (Genome polyprotein): 6.38 µM (active)
- IC50 (Protein Tat): > 100 µM (active)
- CC50 [11]: 36.9 µM (active)

SMILES: COc1cccc(C(c2nnnn2-c2ccc3c(c2)OCCO3)N2CCC(n3c(O)nc4ccccc43)CC2)c1OC (centres undefined)
- IC50 [5]: > 73.4 µM (inactive)
- AC50 [12]: 3.74 µM (active)
- AC50 [13]: > 70 µM (inactive)
- AC50 [14]: 5.67 µM (active)
- AC50 (Paired box protein Pax-8): 1.52 µM (active)

SMILES: Cc1cc(C)cc(/N=C/c2ccc([N+](=O)[O-])s2)c1
- AC50 [9]: 4.15 µM (active)
- IC50 [15]: 2.56 µM (active)
- IC50 [16]: 14.1 µM (active)

SMILES: C=CCN1CCc2nc(N)sc2CC1 [TALIPEXOLE HYDROCHLORIDE]
- EC50 (Mu-type opioid receptor): 92.6 µM (inactive)
- EC50 [6]: 0.0137 µM (active)
- AC50 [17]: 6.04 µM (active)
